Test results taken from patent US20200038438A1, “ANGSTROM SILVER INJECTION FOR CANCER INHIBITION, PREPARATION METHOD AND APPLICATION THEREOF” (Shenzhen AMCAN Medical Biotechnology Limited, priority 2018, published 2020).
Values joined by “and” are separate entries in the source; they are usually repeats but may differ in a detail not shown here. Equal entries are not always repeated.

Legend:
[1] = tested on: tumor tissue cell, NSCLC; assay: 3D drug susceptibility detection (three-dimensional co-culture system), NSCLC patient; type: cell-based, human
Text: A third exemplary embodiment is shown below. • 3D drug susceptibility detection result

[2] = tested on: tumor tissue cell, Lung Tumor; assay: 3D drug susceptibility detection (three-dimensional co-culture system), lung tumor patient; type: cell-based, human; settings: serial No. 0018
Text: A fourth exemplary embodiment is shown below. • 3D drug susceptibility detection result

[3] = tested on: tumor tissue cell, Liver cancer; assay: 3D drug susceptibility detection (three-dimensional co-culture system), liver cancer patient; type: cell-based, human; settings: person
Text: A second exemplary embodiment is shown below. • 3D drug susceptibility detection result

[4] = tested on: human hepatocellular carcinoma cells HepG2; assay: CellTiter-Glo cell viability, 72 hours; type: cell-based; settings: duplicate wells
Text: (§1) A first exemplary embodiment is shown a detection of the angstrom silver on a proliferation influence of human non-small cell lung cancer cells A549 and human hepatocellular carcinoma cells HepG2.
(§2) Reagents and consumables shown below: 1. HepG2, provided by HD Biosciences (Shanghai) Co., Ltd., and passed a mycoplasma detection; 2, F 12K culture medium, American Gibco, Art. No.: 21127-022; 3. EMEM culture medium, American ATCC, Art. No.: 30-2003; 4. Fetal bovine serum (FBS), American Hyclone, Art. No.: CH30160.03; 5. Penicillin-streptomycin liquid, American Invitrogen, Art. No.: CH15140-122; 6. DG-5 (25 Ang) and DG-5 solvents, DG-6 (25 Ang) and DG-6 solvents respectively provided by Shenzhen AMCAN Medical Biotechnology Limited; 7. […] DMSO, American Sigma, Art. No.: D4540; 9. 96-well cell culture plate, American Corning, Art. No.: 3610; 10. CellTiter-Glo Luminescent Cell Viability Assay, American Promega, Art. No.: G7571; 11. Plate reader, American Perkin Elmer, EnVision Multilabel Plate Reader.
(§3) Cell culture medium: 1. A549 culture medium: including 10% fetal bovine serum and F 12K culture medium with 100 U penicillin and 100 μg/mL streptomycin; 2. HepG2 culture medium: including 10% fetal bovine serum and EMEM culture medium with 100 U penicillin and 100 μg/mL streptomycin.
(§4) 3. Only before starting an experiment, in the sterile condition, the prepared dg-5 gradient concentration solution is diluted 2 times by full cell culture medium. At this time, the gradient concentration of a compound to be measured includes 150 ppm, 15 ppm, 1.5 ppm, 0.15 ppm and 0.015 ppm, which is a 2-by-compound solution to be used to treat cells.
(§5) 4. Only before starting the experiment, in the sterile condition, the prepared dg-5 gradient concentration solution was diluted 100 times by the full cell culture medium. At this time, the gradient concentration of the compound to be measured includes 2 μM, 200 nM, 20 nM, 2 nM and 0.2 nM, which is a 2-by-compound solution to be used to treat cells.
(§6) 1. The cell is inoculated in a 96-well cell culture plate the day before the treatment of the compound, while an inoculation density is shown in the experimental design above, and an inoculation volume was 100 μL per hole.
(§7) 2. The next day, the prepared 2-by-compound solution is added to the 96-well cell culture plate according to an arrangement diagram of the compound, and each hole is added to 100 μL.
(§8) 3. Gently oscillating the 96-well cell culture plate and placing it in a 37° C. incubator to continue cultivating for 72 hours.
(§9) 4. After reaching a designated incubation time, a prepared reagent is added to the 96-well cell culture plate according to a CellTiterGlo's reagent specification, and then it is fully blended under a room temperature, finally avoid light incubation for 10 minutes.
(§10) 5. Placing the 96-well cell culture plate in a plate reader to analyze it, and setting it to read chemical luminescence and record data.
(§11) Readout in each hole needs to be converted to a cell viability. The cell viability can be calculated by the following formula: […]

[5] = tested on: human non-small cell lung cancer cells A549; assay: CellTiter-Glo cell viability, 72 hours; type: cell-based; settings: duplicate wells
Text: as §1, §2, §3, §4, §5, §6, §7, §8, §9, §10, §11

Structure (SMILES)	drug efficacy, 3D drug susceptibility detection ([1]; serial No. 0015)	drug efficacy, 3D drug susceptibility detection [2]	drug efficacy, 3D drug susceptibility detection [3]	also measured
COc1cc2ncnc(Nc3ccc(F)c(Cl)c3)c2cc1OCCCN1CCOCC1 [gefitinib]	worst group of efficacy	worst group of efficacy		
CNC(=O)c1cc(Oc2ccc(NC(=O)Nc3ccc(Cl)c(C(F)(F)F)c3)cc2)ccn1 [sorafenib]			Ineffective	
O=c1[nH]cc(F)c(=O)[nH]1 [5-fluorouracil]	worst group of efficacy	worst group of efficacy	Ineffective	
Cc1ccc(NC(=O)c2ccc(CN3CCN(C)CC3)cc2)cc1Nc1nccc(-c2cccnc2)n1 [imatinib]			better	
CC(=O)O[C@H]1C(=O)[C@@]2(C)[C@H]([C@H](OC(=O)c3ccccc3)[C@]3(O)C[C@H](OC(=O)[C@H](O)[C@@H](NC(=O)c4ccccc4)c4ccccc4)C(C)=C1C3(C)C)[C@]1(OC(C)=O)CO[C@@H]1C[C@@H]2O [paclitaxel]			second efficacy	
N.N.O=C([O-])C1(C(=O)[O-])CCC1.[Pt+2] [carboplatin]			Ineffective	
C=CC(=O)Nc1cc(Nc2nccc(-c3cn(C)c4ccccc34)n2)c(OC)cc1N(C)CCN(C)C [AZD9291]	best group of efficacy	best group of efficacy		
Nc1ccn([C@@H]2O[C@H](CO)[C@@H](O)C2(F)F)c(=O)n1 [gemcitabine]	best group of efficacy			
CN[C@@H]1C[C@H]2O[C@@](C)([C@@H]1OC)n1c3ccccc3c3c4c(c5c6ccccc6n2c5c31)C(=O)NC4 [STSP]				Percentage of cell growth ([4]; HepG2, 0.1 nM): 109.0% and 103.4%; Percentage of cell growth ([4]; HepG2, 1 nM): 88.4% and 86.2%; Percentage of cell growth ([4]; HepG2, 100 nM): 17.5% and 22.2%; Percentage of cell growth ([4]; HepG2, 1000 nM): 9.7% and 11.2%; Percentage of cell growth ([5]; A549, 0.1 nM): 124.6% and 126.9%; Percentage of cell growth ([5]; A549, 1 nM): 99.8% and 99.2%; Percentage of cell growth ([5]; A549, 10 nM): 68.8% and 68.5%; Percentage of cell growth ([5]; A549, 100 nM): 28.5%
Nc1nc2[nH]cc(CCc3ccc(C(=O)N[C@@H](CCC(=O)O)C(=O)O)cc3)c2c(=O)[nH]1 [pemetrexed]	worst group of efficacy	worst group of efficacy	Ineffective	drug efficacy, 3D drug susceptibility detection ([1]; serial No. 0015, listed as permetrexed): very poor efficacy
CC(=O)O[C@@]12CO[C@@H]1C[C@H](O)[C@@]1(C)C(=O)[C@H](O)C3=C(C)[C@@H](OC(=O)[C@H](O)[C@@H](NC(=O)OC(C)(C)C)c4ccccc4)C[C@@](O)([C@@H](OC(=O)c4ccccc4)[C@H]21)C3(C)C [docetaxel]			second efficacy	
C#Cc1cccc(Nc2ncnc3cc(OCCOC)c(OCCOC)cc23)c1 [erlotinib]	worst group of efficacy	worst group of efficacy		
